{"source": "patent US20030206968A1", "about": "“Fungicidal mixtures” (priority 1999, published 2003)", "format_in_all_cases": "in vivo", "key": {"Blumeria graminis [1]": {"test_system": "Blumeria graminis", "test": "Field test, Blumeria graminis on wheat", "details": "17 days after application", "how_it_was_run": "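Field trial on wheat: formulated products (SC/EC tank mixes, alone or in mixtures) sprayed as aqueous mix at 400 l/ha by good agricultural practice. Percent infected leaf area assessed 15 or 17 days after application; efficacy calculated as disease control, with synergy judged by the Colby formula.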"}, "Puccinia recondita": {"test_system": "Puccinia recondita", "test": "Greenhouse, Puccinia recondita on wheat, 1 day curative, plants sprayed twice, once with each compound", "details": "Example 12", "procedure": "(§1) The trials are carried out under greenhouse (Examples 1 to 32) or field conditions (Examples 33 to 40) in residual or curative applications. The fungicides are applied in single treatments, or in a combination comprising an azolopyrimidine of formula I and a compound selected from the classes (A), (B) and (C) as defined above. The compounds are applied in form of an aqueous spray mix obtained from a concentrated formulation or the technical material.\n(§2) 1. Seed is planted in 6 cm diameter plastic pots and maintained in the greenhouse.\n(§3) 2. When the primary leaf is fully expanded in the case of cereals or several leaves are present in the case of dicots, formulated test compounds are sprayed with a three nozzle overhead fungicide sprayer to near run-off. Alternatively, a single nozzle overhead track sprayer is used for application of the compounds to cereals at a rate of 200 l/ha. Plants are then allowed to air-dry.\n(§4) 3. Inoculation precedes treatment in the case of curative evaluations and follows treatment in case of residual evaluations. For inoculation of powdery mildew disease, plants are set up on greenhouse benches with bottom watering mats and inoculated by dusting them with conidia from infected plants. Between inoculation and treatment for curative evaluations and between treatment and inoculation for residual evaluations, plants are maintained in the greenhouse with bottom watering.\n(§5) For inoculation of non-powdery mildew diseases, an aqueous spore suspension of the pathogen is applied to the plant and the plants are kept 1-2 days in a moist infection chamber before being returned to the greenhouse where they are maintained by bottom watering.\n(§6) 4. Disease on the foliage as percent leaf area with disease symptoms/signs is evaluated about 7 days after inoculation. In the case of wheat, the tips and bases of the leaves are excluded from the evaluation. [formula]\n(§7) 1. Technical compounds are formulated in a solvent/surfactant system consisting of 5% acetone and 0.05% Tween 20 in deionized water. Compounds are dissolved in acetone prior to addition of the water; the Tween 20 can be added through either the acetone or the water. Dilutions are made using the solvent/surfactant system. Formulated compounds are prepared using deionized water.\n(§8) 2. Two kinds of controls are included: Plants treated with the solvent/surfactant solution and inoculated (Solvent Blank). Untreated plants which are inoculated (Inoculated Control).\n(§9) Assessments of the diseases took place at the indicated day after the application of the compounds. Per cent infected leaf area infected was evaluated. The efficacy of the compounds/compounds mixtures to control the diseases was calculated by using the formula given above under item 4: […]\n(§10) Synergy was calculated using the % disease control values of specific treatments for the two COLBY formula given hereinabove\nFungicidal efficacy of the mixture of Azolopyrimidine C+kresoxim methyl (1 day curative) against Puccinia recondita on wheat Plants sprayed twice, once with each compound. The tank mixes were obtained from a SC formulation containing 100 g Azolopyrimidine C per liter and a WG containing 500 g kresoxim methyl per kg."}, "Blumeria graminis [2]": {"test_system": "Blumeria graminis", "test": "Greenhouse, Blumeria graminis on barley, 4 days residual", "details": "Example 32", "procedure": "as §1, §2, §3, §4, §6, §7, §8, §9, §10\nFungicidal efficacy of the mixture of (S)-Azolopyrimidine C in admixture with Azoxystrobin (4 days residual) against Blumeria graminis on barley. The tank mixes were obtained from technical material of (S)-Azolopyrimidine C and Azoxystrobin."}, "Blumeria graminis [3]": {"test_system": "Blumeria graminis", "test": "Greenhouse, Blumeria graminis on barley, 2 days curative", "procedure": "as §1, §2, §3, §4, §6, §7, §8, §9, §10\nFungicidal efficacy of the mixture of (S)-Azolopyrimidine C in admixture with Fenhexamid (2 days curative) against Blumeria graminis on barley. The tank mixes were obtained from technical material of (S)-Azolopyrimidine C and Fenhexamid.\nFungicidal efficacy of the mixture of (S)-Azolopyrimidine C in admixture with Azoxystrobin or Trifloxystrobin (2 days curative) against Blumeria graminis on barley. The tank mixes were obtained from technical material of (S)-Azolopyrimidine C and Azoxystrobin or Trifloxystrobin."}, "Alternaria solani": {"test_system": "Alternaria solani", "test": "Greenhouse, Alternaria solani on tomatoes, 1 day residual", "details": "Example 25; rate 4 g/ha", "procedure": "as §1, §2, §3, §4, §5, §6, §7, §8, §9, §10\nFungicidal efficacy of the mixture of Azolopyrimidine C and different fungicides (1 day residual) against Alternaria solani on tomatoes The tank mix was obtained from an SC formulation containing 100 g Azolopyrimidine A per liter and WP formulations of dithianon (750 g/kg), captan (500 g/kg), cyprodinil (750 g/kg), mancozeb (800 g/kg), or a SC formulation of chlorothalonil (500 g/l), or a FS formulation of fenpiclonil (400 g/l), spectively."}}}
{"compound": "5-chloro-6-(2,4,6-trifluorophenyl)-7-(1,1,1-trifluoroprop-2-ylamino)-[1,2,4]triazolo[1,5-a]pyrimidine [(S)-Azolopyrimidine C]", "values": [{"measurement": "Observed Efficacy", "setting": "Blumeria graminis [1]; Table XXXVI, (S)-Azolopyrimidine C 25 g/ha alone", "result": 63}, {"measurement": "Observed Efficacy", "setting": "Blumeria graminis [1]; Table XXXVI, (S)-Azolopyrimidine C 50 g/ha alone", "result": 78}, {"measurement": "Observed Efficacy", "setting": "Blumeria graminis [1]; Table XXXVI, (S)-Azolopyrimidine C 75 g/ha alone", "result": 74}, {"measurement": "Observed Efficacy", "setting": "Blumeria graminis [1]; Table XXXVII, (S)-Azolopyrimidine C 25 g/ha alone", "result": 63}, {"measurement": "Observed Efficacy", "setting": "Blumeria graminis [1]; Table XXXVII, (S)-Azolopyrimidine C 50 g/ha alone", "result": 78}, {"measurement": "Observed Efficacy", "setting": "Blumeria graminis [1]; Table XXXVII, (S)-Azolopyrimidine C 75 g/ha alone", "result": 74}, {"measurement": "Observed Efficacy", "setting": "Blumeria graminis [1]; Table XXXVII, (S)-Azolopyrimidine C 100 g/ha alone", "result": 96}, {"measurement": "Observed Efficacy", "setting": "Puccinia recondita; dose rate 25 g/ha", "result": 25, "unit": "%"}, {"measurement": "Observed Efficacy", "setting": "Puccinia recondita; dose rate 50 g/ha", "result": 66, "unit": "%"}, {"measurement": "Observed Efficacy", "setting": "Puccinia recondita; dose rate 100 g/ha", "result": 79, "unit": "%"}, {"measurement": "Observed Efficacy", "setting": "Puccinia recondita; dose rate 200 g/ha", "result": 97, "unit": "%"}, {"measurement": "Observed Efficacy", "setting": "Puccinia recondita; dose rate 400 g/ha", "result": 99, "unit": "%"}, {"measurement": "Observed Efficacy", "setting": "Blumeria graminis [2]; dose rate 1.6 ppm", "result": 0, "unit": "%"}, {"measurement": "Observed Efficacy", "setting": "Blumeria graminis [2]; dose rate 3.1 ppm", "result": 3, "unit": "%"}, {"measurement": "Observed Efficacy", "setting": "Blumeria graminis [2]; dose rate 6.3 ppm", "result": 8, "unit": "%"}, {"measurement": "Observed Efficacy", "setting": "Blumeria graminis [2]; dose rate 12.5 ppm", "result": 17, "unit": "%"}, {"measurement": "Observed Efficacy", "setting": "Blumeria graminis [2]; dose rate 25 ppm", "result": 22, "unit": "%"}, {"measurement": "Observed Efficacy", "setting": "Blumeria graminis [2]; dose rate 50 ppm", "result": 28, "unit": "%"}, {"measurement": "Observed Efficacy", "setting": "Blumeria graminis [3]; Example 26, dose rate 0.74 ppm", "result": 0, "unit": "%"}, {"measurement": "Observed Efficacy", "setting": "Blumeria graminis [3]; Example 26, dose rate 2.2 ppm", "result": 8, "unit": "%"}, {"measurement": "Observed Efficacy", "setting": "Blumeria graminis [3]; Example 26, dose rate 6.7 ppm", "result": 29, "unit": "%"}, {"measurement": "Observed Efficacy", "setting": "Blumeria graminis [3]; Example 26, dose rate 20 ppm", "result": 37, "unit": "%"}, {"measurement": "Observed Efficacy", "setting": "Blumeria graminis [3]; Example 26, dose rate 60 ppm", "result": 60, "unit": "%"}, {"measurement": "Observed Efficacy", "setting": "Blumeria graminis [3]; Example 26, dose rate 180 ppm", "result": 86, "unit": "%"}, {"measurement": "Observed Efficacy", "setting": "Blumeria graminis [3]; Example 29, dose rate 1.6 ppm", "result": 0, "unit": "%"}, {"measurement": "Observed Efficacy", "setting": "Blumeria graminis [3]; Example 29, dose rate 3.1 ppm", "result": 1, "unit": "%"}, {"measurement": "Observed Efficacy", "setting": "Blumeria graminis [3]; Example 29, dose rate 6.3 ppm", "result": 15, "unit": "%"}, {"measurement": "Observed Efficacy", "setting": "Blumeria graminis [3]; Example 29, dose rate 12.5 ppm", "result": 31, "unit": "%"}, {"measurement": "Observed Efficacy", "setting": "Blumeria graminis [3]; Example 29, dose rate 25 ppm", "result": 54, "unit": "%"}, {"measurement": "Observed Efficacy", "setting": "Blumeria graminis [3]; Example 29, dose rate 50 ppm", "result": 73, "unit": "%"}]}
{"compound": "CC(Nc1c(-c2c(F)cc(F)cc2F)c(Cl)nc2ncnn12)C(F)(F)F", "note": "(stereo not shown) [Azolopyrimidine C, 5-chloro-6-(2,4,6-trifluorophenyl)-7-(1,1,1-trifluoroprop-2-ylamino)-[1,2,4]triazolo[1,5-a]pyrimidine]", "values": [{"measurement": "Observed Efficacy", "setting": "Alternaria solani", "result": 25, "unit": "%"}]}
